Data as given in PubChem BioAssay AID2060902 (Molecular Pharmacology Branch, DTP, NCI, 2025).

Tested on: 485368-065-R3-J5-PDC spheroids with HUVEC/MSC, viability
Test: Anticancer human tumor 485368-065-R3-J5-PDC patient-derived pancreatic carcinoma cell line growth inhibition [RAS]
Conditions: for IC50: curve of first compound; for viability, T/C: stronger effect = lower value
Method in brief: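 Agents were tested in combination matrices in half-log decrements from a top concentration at or near clinical Cmax (10 microM if undetermined). Targets were multi-cell spheroids of tumour lines plus HUVEC and MSC stromal cells.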

[1] = second compound 0.000949 µM, first compound 0.00316 µM
[2] = second compound 0.000949 µM, first compound 0.01 µM
[3] = second compound 0.000949 µM, first compound 0.0316 µM
[4] = second compound 0.000949 µM, first compound 0.1 µM
[5] = second compound 0.000949 µM, first compound 0.316 µM
[6] = second compound 0.000949 µM, first compound 1 µM
[7] = second compound 0.003 µM, first compound 0.00316 µM
[8] = second compound 0.003 µM, first compound 0.01 µM
[9] = second compound 0.003 µM, first compound 0.0316 µM
[10] = second compound 0.003 µM, first compound 0.1 µM
[11] = second compound 0.003 µM, first compound 0.316 µM
[12] = second compound 0.003 µM, first compound 1 µM
[13] = second compound 0.00949 µM, first compound 0.00316 µM
[14] = second compound 0.00949 µM, first compound 0.01 µM
[15] = second compound 0.00949 µM, first compound 0.0316 µM
[16] = second compound 0.00949 µM, first compound 0.1 µM
[17] = second compound 0.00949 µM, first compound 0.316 µM
[18] = second compound 0.00949 µM, first compound 1 µM
[19] = second compound 0.03 µM, first compound 0.00316 µM
[20] = second compound 0.03 µM, first compound 0.01 µM
[21] = second compound 0.03 µM, first compound 0.0316 µM
[22] = second compound 0.03 µM, first compound 0.1 µM
[23] = second compound 0.03 µM, first compound 0.316 µM
[24] = second compound 0.03 µM, first compound 1 µM
[25] = second compound 0.0949 µM, first compound 0.00316 µM
[26] = second compound 0.0949 µM, first compound 0.01 µM
[27] = second compound 0.0949 µM, first compound 0.0316 µM
[28] = second compound 0.0949 µM, first compound 0.1 µM
[29] = second compound 0.0949 µM, first compound 0.316 µM
[30] = second compound 0.0949 µM, first compound 1 µM
[31] = second compound 0.3 µM, first compound 0.00316 µM
[32] = second compound 0.3 µM, first compound 0.01 µM
[33] = second compound 0.3 µM, first compound 0.0316 µM
[34] = second compound 0.3 µM, first compound 0.1 µM
[35] = second compound 0.3 µM, first compound 0.316 µM
[36] = second compound 0.3 µM, first compound 1 µM
[37] = second compound 0.000949 µM, first compound 3.16 µM
[38] = second compound 0.000949 µM, first compound 10 µM
[39] = second compound 0.003 µM, first compound 3.16 µM
[40] = second compound 0.003 µM, first compound 10 µM
[41] = second compound 0.00949 µM, first compound 3.16 µM
[42] = second compound 0.00949 µM, first compound 10 µM
[43] = second compound 0.03 µM, first compound 3.16 µM
[44] = second compound 0.03 µM, first compound 10 µM
[45] = second compound 0.0949 µM, first compound 3.16 µM
[46] = second compound 0.0949 µM, first compound 10 µM
[47] = second compound 0.3 µM, first compound 3.16 µM
[48] = second compound 0.3 µM, first compound 10 µM
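Also: spheroids exposed to agents for seven days before readout.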

In the case of C=CC(=O)Nc1cc(Nc2nccc(-c3cn(C)c4ccccc34)n2)c(OC)cc1N(C)CCN(C)C + CCn1c(-c2cc(N3CCN(C)CC3)cnc2C(C)OC)c2c3cc(ccc31)-c1csc(n1)CC(NC(=O)C1CC1C)C(=O)N1CCCC(N1)C(=O)OCC(C)(C)C2, the IC50 (second compound 0.000949 µM) is reported as less than 3.16 nM, the IC50 (second compound 0.003 µM) is reported as less than 3.16 nM and the IC50 (second compound 0.00949 µM) is reported as less than 3.16 nM. For the same compound, the IC50 (second compound 0.03 µM) was less than 3.16 nM, the IC50 (second compound 0.0949 µM) was less than 3.16 nM and the IC50 (second compound 0.3 µM) was less than 3.16 nM. For the same compound, the viability, T/C [1] was 38.2%, the viability, T/C [2] was 34.1% and the viability, T/C [3] was 30.4%. For the same compound, the viability, T/C [4] was 28.6%, the viability, T/C [5] was 25.3% and the viability, T/C [6] was 17.8%. The viability, T/C [7] was 21.1%, the viability, T/C [8] was 19.9% and the viability, T/C [9] was 18.6%. The viability, T/C [10] was 14.6%, the viability, T/C [11] was 13.4% and the viability, T/C [12] was 10.9%. The viability, T/C [13] was 16.4%, the viability, T/C [14] was 15.7% and the viability, T/C [15] was 15.5%. It also gave a viability, T/C [16] of 13.1%, a viability, T/C [17] of 9.97% and a viability, T/C [18] of 7.7%. It also gave a viability, T/C [19] of 13%, a viability, T/C [20] of 11.8% and a viability, T/C [21] of 9.7%. For the same compound, the viability, T/C [22] was 9.51%, the viability, T/C [23] was 7.35% and the viability, T/C [24] was 5.44%. It also gave a viability, T/C [25] of 8.87%, a viability, T/C [26] of 9.53% and a viability, T/C [27] of 8.8%. The viability, T/C [28] was 6.02%, the viability, T/C [29] was 6.17% and the viability, T/C [30] was 3.77%. It also gave a viability, T/C [31] of 8.98%, a viability, T/C [32] of 8.98% and a viability, T/C [33] of 7.33%. It also gave a viability, T/C [34] of 7.51%, a viability, T/C [35] of 4.7% and a viability, T/C [36] of 3.38%.

For CC(C)NCC(C(=O)N1CCN(c2ncnc3c2C(C)CC3O)CC1)c1ccc(Cl)cc1 (stereo not drawn) + CCn1c(-c2cc(N3CCN(C)CC3)cnc2C(C)OC)c2c3cc(ccc31)-c1csc(n1)CC(NC(=O)C1CC1C)C(=O)N1CCCC(N1)C(=O)OCC(C)(C)C2, the IC50 (second compound 0.000949 µM) was less than 31.6 nM, the IC50 (second compound 0.003 µM) was less than 31.6 nM and the IC50 (second compound 0.00949 µM) was less than 31.6 nM. For the same compound, the IC50 (second compound 0.03 µM) was less than 31.6 nM, the IC50 (second compound 0.0949 µM) was less than 31.6 nM and the IC50 (second compound 0.3 µM) was less than 31.6 nM. For the same compound, the viability, T/C [3] was 40.8%, the viability, T/C [4] was 36.3% and the viability, T/C [5] was 29.3%. It also gave a viability, T/C [6] of 23.7%, a viability, T/C [37] of 18.2% and a viability, T/C [38] of 16.4%. The viability, T/C [9] was 22.7%, the viability, T/C [10] was 21.8% and the viability, T/C [11] was 17.9%. For the same compound, the viability, T/C [12] was 14.6%, the viability, T/C [39] was 11.9% and the viability, T/C [40] was 8.84%. For the same compound, the viability, T/C [15] was 15.5%, the viability, T/C [16] was 16.6% and the viability, T/C [17] was 15.6%. The viability, T/C [18] was 14%, the viability, T/C [41] was 10.2% and the viability, T/C [42] was 7.3%. For the same compound, the viability, T/C [21] was 11.7%, the viability, T/C [22] was 13.6% and the viability, T/C [23] was 12.6%. The viability, T/C [24] was 10.5%, the viability, T/C [43] was 7.29% and the viability, T/C [44] was 6.75%. It also gave a viability, T/C [27] of 10.1%, a viability, T/C [28] of 9.26% and a viability, T/C [29] of 7.76%. For the same compound, the viability, T/C [30] was 7.82%, the viability, T/C [45] was 7.22% and the viability, T/C [46] was 6.12%. It also gave a viability, T/C [33] of 8.98%, a viability, T/C [34] of 7.69% and a viability, T/C [35] of 8.06%. The viability, T/C [36] was 7.28%, the viability, T/C [47] was 6.22% and the viability, T/C [48] was 5.13%.

Work on CC(Nc1ccc2c(c1)OCCn1cc(N3C(=O)OCC3C(F)F)nc1-2)C(N)=O (stereo not drawn) + CCn1c(-c2cc(N3CCN(C)CC3)cnc2C(C)OC)c2c3cc(ccc31)-c1csc(n1)CC(NC(=O)C1CC1C)C(=O)N1CCCC(N1)C(=O)OCC(C)(C)C2 yielded an IC50 (second compound 0.000949 µM) of less than 31.6 nM, an IC50 (second compound 0.003 µM) of less than 31.6 nM and an IC50 (second compound 0.00949 µM) of less than 31.6 nM. The IC50 (second compound 0.03 µM) was less than 31.6 nM, the IC50 (second compound 0.0949 µM) was less than 31.6 nM and the IC50 (second compound 0.3 µM) was less than 31.6 nM. It also gave a viability, T/C [3] of 26.2%, a viability, T/C [4] of 23.7% and a viability, T/C [5] of 24.2%. For the same compound, the viability, T/C [6] was 18.2%, the viability, T/C [37] was 17.5% and the viability, T/C [38] was 11.3%. For the same compound, the viability, T/C [9] was 15%, the viability, T/C [10] was 13.3% and the viability, T/C [11] was 12.6%. For the same compound, the viability, T/C [12] was 11.2%, the viability, T/C [39] was 10.1% and the viability, T/C [40] was 7.35%. For the same compound, the viability, T/C [15] was 10.8%, the viability, T/C [16] was 11.4% and the viability, T/C [17] was 9.57%. The viability, T/C [18] was 9.69%, the viability, T/C [41] was 9.37% and the viability, T/C [42] was 6.07%. For the same compound, the viability, T/C [21] was 10.3%, the viability, T/C [22] was 9.36% and the viability, T/C [23] was 8.76%. It also gave a viability, T/C [24] of 8.73%, a viability, T/C [43] of 7.08% and a viability, T/C [44] of 4.24%. The viability, T/C [27] was 7.86%, the viability, T/C [28] was 6.77% and the viability, T/C [29] was 7.07%. It also gave a viability, T/C [30] of 5.28%, a viability, T/C [45] of 4.78% and a viability, T/C [46] of 2.97%. It also gave a viability, T/C [33] of 6.57%, a viability, T/C [34] of 6.98% and a viability, T/C [35] of 5.66%. For the same compound, the viability, T/C [36] was 4.05%, the viability, T/C [47] was 4.16% and the viability, T/C [48] was 2.04%.

O=C(c1ccc(F)c(F)c1Nc1ccc(I)cc1F)N1CC(O)([C@@H]2CCCCN2)C1 + CCn1c(-c2cc(N3CCN(C)CC3)cnc2C(C)OC)c2c3cc(ccc31)-c1csc(n1)CC(NC(=O)C1CC1C)C(=O)N1CCCC(N1)C(=O)OCC(C)(C)C2 showed an IC50 (second compound 0.000949 µM) of less than 3.16 nM, an IC50 (second compound 0.003 µM) of less than 3.16 nM and an IC50 (second compound 0.00949 µM) of less than 3.16 nM. For the same compound, the IC50 (second compound 0.03 µM) was less than 3.16 nM, the IC50 (second compound 0.0949 µM) was less than 3.16 nM and the IC50 (second compound 0.3 µM) was less than 3.16 nM. It also gave a viability, T/C [1] of 32.9%, a viability, T/C [2] of 29.9% and a viability, T/C [3] of 22.8%. For the same compound, the viability, T/C [4] was 17.6%, the viability, T/C [5] was 12.8% and the viability, T/C [6] was 3.33%. It also gave a viability, T/C [7] of 19.3%, a viability, T/C [8] of 20.3% and a viability, T/C [9] of 14.9%. The viability, T/C [10] was 10.8%, the viability, T/C [11] was 4.68% and the viability, T/C [12] was 1.33%. For the same compound, the viability, T/C [13] was 16.1%, the viability, T/C [14] was 12.9% and the viability, T/C [15] was 10.6%. For the same compound, the viability, T/C [16] was 5.68%, the viability, T/C [17] was 1.77% and the viability, T/C [18] was 1.26%. The viability, T/C [19] was 10.3%, the viability, T/C [20] was 8.49% and the viability, T/C [21] was 6.41%. The viability, T/C [22] was 2.18%, the viability, T/C [23] was 1.53% and the viability, T/C [24] was 1.44%. The viability, T/C [25] was 6.98%, the viability, T/C [26] was 5.08% and the viability, T/C [27] was 3%. For the same compound, the viability, T/C [28] was 1.9%, the viability, T/C [29] was 1.88% and the viability, T/C [30] was 1.97%. It also gave a viability, T/C [31] of 6.37%, a viability, T/C [32] of 3.9% and a viability, T/C [33] of 2.16%. It also gave a viability, T/C [34] of 2.03%, a viability, T/C [35] of 2.03% and a viability, T/C [36] of 2.14%.
